Experimental data as given in PubChem BioAssay (NCI).
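Grown in 96-well plates, cells were treated for 48 hours with each compound at five concentrations. Insufficient inhibition: endpoint recorded as highest concentration tested. TGI denotes the concentration required for complete inhibition of growth.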

Assays:
Experiment in all cases: NCI anticancer screen, dose series, 48 h
SR leukemia = tested on: SR leukemia
RXF 393 renal = tested on: RXF 393 renal
SN12C renal = tested on: SN12C renal
HOP-92 NSCLC = tested on: HOP-92 NSCLC
DU-145 prostate = tested on: DU-145 prostate
MCF7 breast = tested on: MCF7 breast
OVCAR-4 ovarian = tested on: OVCAR-4 ovarian
LOX IMVI melanoma = tested on: LOX IMVI melanoma
MDA-N = tested on: MDA-N
K-562 leukemia = tested on: K-562 leukemia
SNB-75 CNS = tested on: SNB-75 CNS
NCI-H226 lung = tested on: NCI-H226 lung
HCT-15 colon = tested on: HCT-15 colon
OVCAR-8 ovarian = tested on: OVCAR-8 ovarian
IGROV1 ovarian = tested on: IGROV1 ovarian
A549 NSCLC = tested on: A549 NSCLC
T-47D breast = tested on: T-47D breast
UACC-62 melanoma = tested on: UACC-62 melanoma
SK-OV-3 ovarian = tested on: SK-OV-3 ovarian
MOLT-4 leukemia = tested on: MOLT-4 leukemia

Row | Structure (SMILES) | TGI (SR leukemia) [µM] | TGI (RXF 393 renal) [µM] | TGI (SN12C renal) [µM] | TGI (HOP-92 NSCLC) [µM] | TGI (DU-145 prostate) [µM] | TGI (MCF7 breast) [µM] | TGI (OVCAR-4 ovarian) [µM] | TGI (LOX IMVI melanoma) [µM] | TGI (MDA-N) [µM] | TGI (K-562 leukemia) [µM] | TGI (SNB-75 CNS) [µM] | TGI (NCI-H226 lung) [µM] | TGI (HCT-15 colon) [µM] | TGI (OVCAR-8 ovarian) [µM] | TGI (IGROV1 ovarian) [µM] | TGI (A549 NSCLC) [µM] | TGI (T-47D breast) [µM] | TGI (UACC-62 melanoma) [µM] | TGI (SK-OV-3 ovarian) [µM] | TGI (MOLT-4 leukemia) [µM]
1 | CC(C)(C)N1C(=O)c2ccccc2C1(O)C(F)(F)F (stereo unspecified) | > 100 | > 100 | > 100 | > 100 | > 100 | > 100 | > 100 | > 100 | > 100 | > 100 | > 100 | > 100 | > 100 | > 100 | > 100 | > 100 | > 100 | > 100 | > 100 | 
2 | COc1ccc(/C=N/n2c(=O)[nH]c3ccccc3c2=O)cc1 | > 100 |  | > 100 | > 100 | > 100 | > 100 |  | > 100 | > 100 | > 100 | > 100 | > 100 | > 100 | > 100 | > 100 | > 100 | > 100 | > 100 | > 100 | > 100
3 | CCN(CC)C(=S)SNc1ccc(S(N)(=O)=O)cc1 | > 85.6 | > 82.8 | > 100 | > 100 | > 100 | > 100 | > 100 | > 100 | > 100 | > 100 | > 100 | > 100 | > 100 | 66 | > 100 | > 100 | > 100 | > 100 | > 100 | > 100
4 | Cc1nn2c(=O)c([N+](=O)[O-])c(/C=C/c3ccco3)nc2s1 | 79.2 | > 100 | > 100 | > 100 | > 100 | > 100 | > 100 | 50.4 | 76.5 | > 100 | > 100 | > 100 | > 100 | > 100 | > 100 | > 100 | > 100 | > 100 | > 100 | > 100
5 | CC1=C(C)CC(C#N)(C#N)C(C#N)(C#N)C1 | > 5.17 | > 6.09 | > 10 | > 6.48 | > 10 | > 10 | > 10 | > 10 | > 7.22 | 9.98 | > 10 | > 10 | > 10 | > 9.66 | > 5.87 | > 10 | 9.9 | > 10 | > 10 | > 6.09
6 | Cc1cc(=O)oc2cc(SC(=O)N(C)C)ccc12 | > 100 | > 100 | > 100 | > 100 | > 100 | > 100 | > 100 | > 100 | > 100 |  | > 100 | > 100 | > 100 | > 100 | > 100 | > 100 | > 100 | > 100 | > 100 | > 100
7 | O=C1C=CC(=O)c2c1cc([N+](=O)[O-])c1ccoc21 | > 100 | 3.75 | 38.1 | 5 | > 58.6 | 44.3 | 38.6 | > 44.5 | 35.4 | > 100 | > 59.5 | > 62.7 | 58.5 | > 72.3 | 51.9 | 40.9 | > 100 | 29.4 | 43.6 | 
8 | COc1ccc2oc(=Nc3ccccc3)c(C(N)=O)cc2c1 | > 100 | > 100 | > 100 | > 100 | > 100 | > 100 | > 100 | > 100 | > 100 | > 100 | > 100 | > 100 | > 100 | > 100 | > 100 | > 100 | > 100 |  | > 70.2 | > 100
9 | CC(C)/C(Cl)=N/OC(=O)Nc1cccc(C(F)(F)F)c1 | 3.12 | 18.9 | 20.1 | 3.33 | 34.5 | 16.5 | 16.6 | 6.43 | 23.7 |  | 21.2 | 30.7 | 3.39 | 31.8 | 26.6 | 39.1 | 14.1 | 27.6 | 31.7 | 4.42
10 | CC(C)(Br)C(Br)CCC(=CCBr)CBr (mixture of isomers) | 4.69 | 6.48 | 4.29 | 13.3 | 22.3 | 13.2 | 17 |  | 4.68 | 6.7 | 10.9 | 28.3 | 5.98 | 6.36 | 8.9 | 28.3 | 8.53 | 4.4 | 36.4 | 6.66
11 | NC(=O)NC(=O)CCC(NS(=O)(=O)c1ccccc1)C(=O)NC(N)=O (stereo unspecified) | > 100 |  | > 100 | > 100 | > 100 | > 100 | > 100 | > 100 | > 100 | > 100 | > 100 | > 100 | > 100 | > 100 | > 100 | > 100 | > 100 | > 100 | > 100 | > 100
